From ChEMBL document CHEMBL1201862, “PubChem BioAssay data set” (2004) come the findings set out here.

Test in all cases: growth of human tumour cells (NCI), 48 h
For assay [1], the system named is HCC 2998.
The subject of assay [2] is CCRF-CEM.
Assay [3] deals with HCT-116.
Assay [4] concerns NCI-H226.
The test system of assay [5] is SF-295.
The test system of assay [6] is SK-OV-3.
In assay [7] the test system is UO-31.
Assay [8] has as its system MOLT-4.
Assay [9] deals with 786-0.
Assay [10] deals with OVCAR-3.
Assay [11] concerns SNB-19.
Assay [12] deals with SW-620.
In assay [13] the test system is UACC-62.
Assay [14] deals with HL-60.
The subject of assay [15] is OVCAR-4.
Assay [16] deals with K562.
In assay [17] the test system is RXF 393.
Assay [18] has as its system RPMI-8226.
In assay [19] the test system is A498.

Structures are written as SMILES.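 Cultured in 96-well plates, cells were exposed to test compound for 48 hours across five concentrations. GI50: concentration for 50% inhibition of growth.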 The source made the active and inactive calls. No stated cut-off is given here; in the data, active = GI50 up to about 1.1 µM and inactive = higher.

As to `CC(C)(C)c1cc(C(=O)O)c2c(c1)C(=O)OC2(c1ccccc1)c1ccccc1C(=O)O` (centres undefined), the GI50 in assay [1] was 0.467 µM (active); in [2], > 100 µM (inactive); in assay [3], > 100 µM (inactive); in [4] it was 23.9 µM (inactive); in assay [5] it was > 100 µM (inactive); in [6] it was 0.0611 µM (active). Besides, the GI50 in [7], in assay [8], in assay [9], in [10], in [11] and in assay [12] was > 100 µM (inactive) throughout. The GI50 in assay [13] is > 100 µM (inactive); in assay [14] it was > 100 µM (inactive); in assay [15], 78.3 µM (inactive); in [16] it was > 100 µM (inactive); in assay [17], > 100 µM (inactive).

With `CNC(=S)NNC(=O)c1c(C)nc2sccn12`, the GI50 in assay [1], in assay [2], in [3], in assay [4], in assay [5] and in [6] was > 100 µM (inactive) each time. In addition, the GI50 in assay [8] is > 100 µM (inactive); in assay [9], > 100 µM (inactive); in assay [10], > 100 µM (inactive); in [11] it was 99.5 µM (inactive); in assay [12], > 100 µM (inactive); in assay [13], > 100 µM (inactive). Besides, the GI50 in [14], in assay [16] and in assay [17] was > 100 µM (inactive) throughout.

With `CCN/C(=N\Nc1ccc([N+](=O)[O-])cc1)P(=O)(OC(C)C)OC(C)C`, the GI50 in assay [1] was > 100 µM (inactive); in assay [2], > 100 µM (inactive); in assay [3], > 100 µM (inactive); in [18], > 100 µM (inactive); in [4], 25.8 µM (inactive); in [7], > 100 µM (inactive). The GI50 in assay [19], in assay [8], in [9], in assay [10], in assay [11] and in assay [12] was > 100 µM (inactive) each time. Also, the GI50 in assay [13] is 64 µM (inactive); in [14] it was > 100 µM (inactive); in [15], 44.2 µM (inactive); in assay [16], > 100 µM (inactive).

Regarding `O=C(OCC1CO1)c1cccs1` (centres undefined), the GI50 in assay [1], in assay [2], in [18], in [5], in assay [6] and in assay [7] was > 100 µM (inactive) throughout. Also, the GI50 in assay [8], in assay [9], in assay [10], in assay [11], in assay [12] and in assay [13] was > 100 µM (inactive) in each case. Besides, the GI50 in [14], in assay [15], in [16] and in [17] was > 100 µM (inactive) throughout.

For `COc1ccc(CNc2cnc3cc(N)ccc3n2)cc1`, the GI50 in [1] was > 100 µM (inactive); in [2] it was 30 µM (inactive); in assay [3] it was > 100 µM (inactive); in assay [18] it was 42.8 µM (inactive); in [4] it was 80.7 µM (inactive); in assay [5], 94.4 µM (inactive). The GI50 in assay [7] was 26.4 µM (inactive); in assay [8], 69 µM (inactive); in [9] it was > 100 µM (inactive); in assay [10], > 100 µM (inactive); in assay [11], 69 µM (inactive); in [12], > 100 µM (inactive). For the same compound, the GI50 in assay [13] is > 100 µM (inactive); in assay [14] it was 77.1 µM (inactive); in assay [15] it was > 100 µM (inactive); in [16], > 100 µM (inactive); in assay [17], > 100 µM (inactive).

In the case of `O=C(/C=C1\Nc2ccccc2C(=O)N1c1ccc(Cl)cc1)c1ccncc1`, the GI50 in assay [2] was > 100 µM (inactive); in assay [3], > 100 µM (inactive); in assay [18], > 100 µM (inactive); in assay [4] it was > 100 µM (inactive); in assay [5] it was 65 µM (inactive); in assay [6], > 100 µM (inactive). The GI50 in [7] is > 100 µM (inactive); in assay [19], 75.7 µM (inactive); in assay [8] it was > 100 µM (inactive); in [9], 71.6 µM (inactive); in assay [10], > 100 µM (inactive); in assay [11], > 100 µM (inactive). The GI50 in assay [12], in assay [13], in assay [14], in [15] and in [16] was > 100 µM (inactive) in each case.

Regarding `c1ccc(C2=NN3CN(N2)c2ccccc2OCCCOc2ccccc23)cc1`, the GI50 in assay [2] is > 100 µM (inactive); in [3] it was > 100 µM (inactive); in assay [18] it was 19.1 µM (inactive); in assay [4], > 100 µM (inactive); in assay [5] it was > 100 µM (inactive); in assay [7], 77.4 µM (inactive). Further, the GI50 in assay [8] is 63.8 µM (inactive); in assay [9], > 100 µM (inactive); in [10], > 100 µM (inactive); in assay [11] it was > 100 µM (inactive); in [12] it was > 100 µM (inactive); in assay [13], > 100 µM (inactive). For the same compound, the GI50 was 48.9 µM (inactive) in assay [14], 77.6 µM (inactive) in [15], > 100 µM (inactive) in [16] and > 100 µM (inactive) in assay [17].

In the case of `Cc1cn(C2CC(ON3C(=O)c4ccccc4C3=O)C(CO)O2)c(=O)[nH]c1=O` (centres undefined), the GI50 in assay [1], in assay [2], in [3], in assay [4], in assay [5] and in assay [6] was > 10 µM (inactive) in each case. For the same compound, the GI50 in assay [7], in assay [8], in assay [9], in assay [10], in assay [11] and in [12] was > 10 µM (inactive) each time. In addition, the GI50 in assay [13], in [14], in assay [15], in [16] and in assay [17] was > 10 µM (inactive) throughout.

In the case of `O=[N+]([O-])c1c(/C=N/Nc2ccccc2)oc(-c2ccc3c(c2)OCO3)c1-c1ccc2c(c1)OCO2`, the GI50 is 5.71 µM (inactive) in [1]; 8.47 µM (inactive) in [3]; 5.78 µM (inactive) in assay [18]; > 100 µM (inactive) in assay [4]; 26.9 µM (inactive) in assay [5]; 30.5 µM (inactive) in [6]. For the same compound, the GI50 was 19.2 µM (inactive) in [9]; 5.77 µM (inactive) in assay [10]; 70.3 µM (inactive) in assay [11]; 11.1 µM (inactive) in assay [12]; 3.19 µM (inactive) in assay [13]; 4.57 µM (inactive) in [14]. The GI50 in assay [15] is 21.5 µM (inactive); in [16] it was 3.06 µM (inactive); in assay [17] it was 36.5 µM (inactive).

In the case of `NC1=C(NC(=O)Cc2ccc(F)cc2)C(=O)c2ccccc2C1=O`, the GI50 is > 100 µM (inactive) in assay [1]; > 53.5 µM (inactive) in [2]; 32 µM (inactive) in assay [3]; > 100 µM (inactive) in [18]; > 50.4 µM (inactive) in assay [4]; 33.3 µM (inactive) in assay [5]. Further, the GI50 in assay [6] is 19.4 µM (inactive); in assay [7], 58.1 µM (inactive); in [8], > 67.9 µM (inactive); in assay [9], 37.7 µM (inactive); in [10] it was 26.4 µM (inactive); in [11] it was 23.1 µM (inactive). Further, the GI50 is > 100 µM (inactive) in [12]; 36.4 µM (inactive) in [13]; 35.1 µM (inactive) in assay [14]; > 100 µM (inactive) in assay [15]; 58.7 µM (inactive) in [16]; 24.6 µM (inactive) in assay [17].

Consider `COC(=O)C1Cc2c([nH]c3ccccc23)C(c2ccccc2O)N1` (centres undefined), for which the GI50 in assay [1] is 60.1 µM (inactive); in [2] it was 45.4 µM (inactive); in assay [3], 66.8 µM (inactive); in [4] it was > 100 µM (inactive); in assay [5] it was 78.5 µM (inactive); in assay [6], > 100 µM (inactive). The GI50 is 43.1 µM (inactive) in [7]; 21.3 µM (inactive) in [19]; 41.9 µM (inactive) in assay [8]; 69.8 µM (inactive) in assay [9]; 49.7 µM (inactive) in [10]; > 100 µM (inactive) in assay [11]. Moreover, the GI50 in [12] was > 100 µM (inactive); in [13], 35.4 µM (inactive); in assay [14] it was 28.5 µM (inactive); in [15] it was 53.5 µM (inactive); in assay [16], 50 µM (inactive).

`Cc1cnc2c(c1)C(=O)C1=C(OC(C)(C)CC1O)C2=O` (centres undefined): the GI50 in assay [1] was 17.7 µM (inactive); in [2], 13.2 µM (inactive); in assay [3], 14.4 µM (inactive); in assay [18], 13.6 µM (inactive); in [4], 20.1 µM (inactive); in assay [5], 13.3 µM (inactive). The GI50 is 18.9 µM (inactive) in assay [6]; 15.7 µM (inactive) in assay [7]; 15.9 µM (inactive) in assay [8]; 14.9 µM (inactive) in assay [9]; 11.1 µM (inactive) in assay [10]; 16.7 µM (inactive) in [11]. Moreover, the GI50 was 14.7 µM (inactive) in [12]; 3.79 µM (inactive) in assay [13]; 4.45 µM (inactive) in assay [14]; 12.8 µM (inactive) in assay [15]; 16.8 µM (inactive) in assay [16]; 15.5 µM (inactive) in assay [17].
